For test [1], the target named is T1, retinol dehydrogenase RDH7 (Mus musculus, UniProt O88451).
T1 construct: native, in intact mouse liver pieces
T1 sequence (O88451 1-316): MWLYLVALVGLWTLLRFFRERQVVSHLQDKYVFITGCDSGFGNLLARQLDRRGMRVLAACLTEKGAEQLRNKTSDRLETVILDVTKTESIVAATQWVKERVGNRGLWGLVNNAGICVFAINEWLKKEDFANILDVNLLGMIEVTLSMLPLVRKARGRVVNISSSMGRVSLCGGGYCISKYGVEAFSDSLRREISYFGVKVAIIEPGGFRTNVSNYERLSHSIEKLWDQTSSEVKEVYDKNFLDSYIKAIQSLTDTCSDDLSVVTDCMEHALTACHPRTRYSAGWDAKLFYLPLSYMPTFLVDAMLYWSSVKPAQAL
The experiment in a line: covalent labelling, streptavidin enrichment, LC-MS/MS. Particulars: 30 uM probe, 1 h, mouse liver pieces.

For test [2], the target named is T2, CYP27A1 (sterol-26-hydroxylase) (Mus musculus, UniProt Q9DBG1).
T2 construct: native, in intact mouse liver pieces
T2 sequence (Q9DBG1 33-533): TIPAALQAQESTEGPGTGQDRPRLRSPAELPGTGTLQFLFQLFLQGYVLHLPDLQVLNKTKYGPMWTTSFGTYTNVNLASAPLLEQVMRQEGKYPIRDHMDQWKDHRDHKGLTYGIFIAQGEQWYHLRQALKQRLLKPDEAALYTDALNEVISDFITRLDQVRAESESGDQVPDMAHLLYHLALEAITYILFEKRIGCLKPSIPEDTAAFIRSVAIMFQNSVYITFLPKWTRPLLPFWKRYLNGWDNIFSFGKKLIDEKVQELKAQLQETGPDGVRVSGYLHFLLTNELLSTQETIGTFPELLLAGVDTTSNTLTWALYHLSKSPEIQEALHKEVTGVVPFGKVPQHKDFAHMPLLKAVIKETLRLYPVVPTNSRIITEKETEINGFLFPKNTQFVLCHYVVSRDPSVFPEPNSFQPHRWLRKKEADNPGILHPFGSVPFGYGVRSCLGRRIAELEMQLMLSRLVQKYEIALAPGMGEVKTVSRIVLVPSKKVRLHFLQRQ
Described as above. The note with it: 30 uM probe, 1 h, mouse liver pieces.

For `[N-]=[N+]=NCCCCCCCCCCNC(=O)c1ccc([I+]c2ccccc2)cc1` [3aa, diphenyliodonium probe 3aa], the “covalent labelling, streptavidin enrichment, LC-MS/MS” value was “RDH7 and RDH16 were found to be labeled by probe 3aa very well” in test [1]; “cytochrome P450 monooxygenases (CYP3A25, CYP27A1)” in test [2].

(Values after article PMC11912224, “A general approach for activity-based protein profiling of oxidoreductases with redox-differentiated diarylhalonium warheads” (Chemical Science, 2025).)
